Test results from the METLIN SMRT retention time set (Domingo-Almenara et al. 2019).

experiment: gradient 5% acetonitrile 3 min, to 50% in 2 min, to 85% in 15 min, held 3 min, 100 µL/min; conditions: column: Zorbax Extend-C18 2.1 x 50 mm; eluents: water / acetonitrile, 0.1% formic acid
Summary of the method: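 Mixtures of ~100 pure standards were chromatographed on a Zorbax Extend-C18 column (2.1 × 50 mm, 1.8 μm) at 100 μL/min using water and acetonitrile, each with 0.1% formic acid. Detection used a quadrupole time-of-flight mass spectrometer in positive and negative ionization mode, and data collection spanned 3 months. Retention time was obtained from adduct peaks picked computationally and each checked manually.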

Structure (SMILES)	RP-LC retention time
Cc1ccc(Cn2c(N3CCC(C(=O)NCC(C)C)CC3)nc3ccsc3c2=O)cc1	920 s
Cn1cc(CN2CCC(C(=O)N3CCN(c4ccccn4)CC3)CC2)c2cc(Cl)ccc21	584 s
CCCN(C)c1nccnc1OC1CCN(C(=O)CC(C)C)C1 (stereo not drawn)	835 s
Cc1noc(C)c1CNC(=O)c1cc(F)ccc1Cl	726 s
CCN(CC)C(=O)c1ccc2c(c1)N(CC(=O)Nc1ccc(C(C)=O)cc1)C(=O)CO2	700 s
COc1ccc(NC(=O)Cn2nc(N3CCCC3)c3ccccc3c2=O)cc1	847 s
CCn1c(=O)n(CC(=O)NCCN2CCCC2)c(=O)c2cnc(-c3ccc(Cl)cc3)nc21	706 s
COc1cc(OC)c(NC(=O)Cn2cc3c(n2)CCC(C)C3)cc1Cl (stereo not drawn)	999 s
COc1ccc(NC(=O)N2CCN(c3nc4ccccc4n3C)CC2)cc1OC	610 s
CCn1c(=O)c(C)nc2cc(-c3noc(-c4ccc(F)c(F)c4)n3)ccc21	1150 s
CCOc1ccc(-n2ccnc(NC(=O)Nc3ccccc3)c2=O)cc1	981 s
CC(CC(=O)Nc1ccccc1Cl)S(=O)(=O)c1ccc2c(c1)NC(=O)CCS2 (stereo not drawn)	761 s
Cc1c2cnn(-c3ccccc3)c(=O)c2c(C)n1C(C)C(=O)NCCN1CCCC1 (stereo not drawn)	617 s
COc1cccc(N2CCN(C3=Nc4c(F)cccc4[C@H](CC(=O)O)N3c3cc(C(F)(F)F)ccc3OC)CC2)c1	899 s
Cc1ccc(NC(=O)Cn2nc(N3CCOCC3)c3ccccc3c2=O)c(Cl)c1	871 s
N#CCCSc1ccccc1NC(=O)c1cc2cc([N+](=O)[O-])ccc2s1	954 s
Cc1ccc(N2CC(c3nc(-c4ccncc4)no3)CC2=O)cc1Cl (stereo not drawn)	845 s
O=C(NCc1cnoc1-c1ccc(F)cc1)c1ccccc1	844 s
O=C(Cn1cnc2nc(N3CCC(C(=O)NC4CC4)CC3)sc2c1=O)Nc1ccccc1F	885 s
O=C(Cn1nc(C(=O)N2CCOCC2)c2ccccc21)Nc1cccc(Cl)c1	816 s
CCCCNC(=O)CCC(=O)N1CCCn2nc(-c3cn(C)c4ccccc34)cc21	778 s
CCNC(=O)C1CCN(c2cnn(Cc3ccccc3)c(=O)c2)CC1	674 s

Structure (SMILES)	RP-LC retention time
Cc1ccc(C(=O)N2CCN(c3ccc(=O)n(-c4cccc(Cl)c4)n3)CC2)s1	891 s
CCCCS(=O)(=O)N1CCC2(CC1)C(=O)N(C)C(=O)N2C	671 s
O=C(Cc1csc2nc(-c3ccccc3)cn12)Nc1ccccc1F	764 s
CC1CCCN(c2nccn3c(=O)n(CC(=O)Nc4ccc(Br)cc4F)nc23)C1 (stereo not drawn)	911 s
Cn1cc(C2=CCN(C(=O)c3cc(F)cc(F)c3)CC2)c2cccnc21	846 s
CCOC(=O)c1c(C)oc2nc(C)nc(N3CCN(c4ccc(OC)cc4)CC3)c12	979 s
CCCc1cc(C2CCCN2C(=O)Nc2ccc(C(=O)OC)cc2)no1 (stereo not drawn)	807 s
CCNc1ncnc2sc3c(c12)CCN(C(=O)CCOC)C3	610 s
CC(=O)[C@@]1(O)CC[C@H]2[C@@H]3C[C@H](C)C4=CC(=O)C=C[C@]4(C)[C@@]3(F)[C@@H](O)C[C@@]21C	844 s
CCc1noc(C2(NC(=O)c3nn(C)c4ccccc34)CCCCC2)n1	1010 s
O=c1ccc(-c2ccc3c(c2)OCO3)nn1Cc1nc(-c2ccc(F)cc2)no1	988 s
CCCN(C)c1nccnc1OC1CCN(C(=O)c2ccoc2)C1 (stereo not drawn)	723 s
O=C(CC1CCCCC1)NC1CCN(C(=O)c2cc(-c3cccc(Cl)c3)n[nH]2)CC1	797 s
CCc1cc(N2CCN(C(=O)c3ccc(N(C)C)cc3)CC2)nc2nnc(C)n12	599 s
Cc1nc(N2CCOCC2)c2c(C(=O)Nc3ccc(F)cc3Cl)c(C)oc2n1	896 s
CCOc1cccc(C2c3[nH]c4ccccc4c3CCN2C(=O)c2ccco2)c1 (stereo not drawn)	1130 s
CCc1ccc2[nH]c3c(c(=O)c2c1)CN(CC(=O)NCc1ccc(OC)cc1)CC3	612 s
O=C(Nc1ccccc1SCc1nnc(-c2ccccc2)o1)c1ccc(Br)o1	1040 s
CCC(=O)NCc1csc(C2CCCN(C(=O)C(C)(C)C)C2)n1 (stereo not drawn)	681 s
COc1ccc2[nH]c3c(c2c1)CCN1C(=O)N(c2ccccc2OC)C(=O)C31C (stereo not drawn)	884 s
COc1ccc(C(=O)Nc2cnn(C)c(=O)c2N2CCOCC2)cc1Cl	784 s
CC(C)CC(NC(=O)Cc1ccc(Cl)cc1)C(=O)Nc1nc2ccccc2[nH]1 (stereo not drawn)	767 s

Structure (SMILES)	RP-LC retention time
Cc1nc2nc(-c3ccc(C(C)(C)C)cc3)nn2c(C)c1CC(=O)N(C)Cc1ccccc1	1110 s
Cc1ccc(-c2nnc(Cc3nc(-c4ccccc4)no3)o2)cc1C	1090 s
Cc1cccc2c(=O)n(C3CCN(C(=O)Nc4ccccc4)CC3)cnc12	751 s
CCC(=O)c1cn(CC(=O)NCc2cc3c(cc2OC)OCCCO3)c2ccccc12	837 s
Cc1ccsc1C(=O)N1CCN(c2cc(-c3ccc(Cl)cc3)[nH]n2)CC1	749 s
CCc1nnc(-c2cn(CC(=O)NCc3cccc(Br)c3)c3ccccc23)o1	867 s
CN(Cc1ccco1)C(=O)c1ccc2ncnc(N3CCCCC3)c2c1	632 s
O=C(NCc1ccc(F)cc1F)C1CCc2nc(N3CCOCC3)ncc2C1 (stereo not drawn)	682 s
CCOCC(=O)Nc1ccc(-c2cn3c(C(=O)N(C)C)csc3n2)cc1	647 s
COc1ccc(-c2nc(-c3ccc4nnn(C(C)C)c4c3)no2)cc1	1140 s
CCNc1cc(N2CCC(CCC(=O)N3CCCN(c4ncccn4)CC3)CC2)ncn1	596 s
COc1ccc(C)cc1NC(=O)Cn1ncc2c(c1=O)N(C1CC1)C(=O)CS2	794 s
Cn1c(=O)oc2cc(-c3noc(CNC(=O)Cc4ccc(Cl)cc4)n3)ccc21	807 s
Cc1ccccc1NC(=O)Cn1nc2cc(-c3ccccc3)nc(C)n2c1=O	907 s
COc1ccc(CNC(=O)Cn2nc(C)c3sc(-c4ccccc4)nc3c2=O)cc1	846 s
O=C(Cn1ccnc1-c1ccnc(N2CCSCC2)c1)NC1CCCC1	619 s
CC(C)CCNC(=O)Cn1ccn2nc(-c3ccc(F)cc3)c(CO)c2c1=O	804 s
CN(CC1CCOC1)C(=O)NCc1cccc(F)c1 (stereo not drawn)	675 s
Cc1nn2c(N3CCN(c4ccccn4)CC3)cc(C(C)C)nc2c1-c1ccccc1	823 s
COc1ccc(NC(=O)Nc2nccn(-c3ccccc3)c2=O)cc1OC	784 s
Nc1nc(N2CCC3(CC2)OCCO3)ncc1C(=O)NCc1ccccc1	705 s
Cc1cc(NC(=O)c2ccccc2)nc(C)n1	667 s

Structure (SMILES)	RP-LC retention time
CC(C)n1cnc(S(=O)(=O)N2CCC(C(=O)Nc3ccc(OC(F)(F)F)cc3)CC2)c1	888 s
Cc1cccc(NC(=O)NCC(c2cccnc2)c2cn(C)c3ccccc23)c1C (stereo not drawn)	719 s
Cc1ccc(NC(=O)C2CCN(S(=O)(=O)c3ccc4c(c3)sc(=O)n4C)CC2)cc1F	933 s
Cc1nn(CCCC(=O)N2CCN(c3ccccn3)CC2)c(=O)c2cc3occc3n12	589 s
Cc1ccc(C)c(NC(=O)Cn2c(=O)n(-c3ccccc3)c3ncccc32)c1	852 s
Cc1[nH]c(C(=O)N2CCC(CC(=O)NCCCN3CCCC(C)C3)CC2)c(C)c1C (stereo not drawn)	610 s
CC(C)C(=O)NCCc1csc(C2CCCN(C(=O)C3CCCO3)C2)n1 (stereo not drawn)	622 s
CC1CCN(S(=O)(=O)c2ccc(-c3nnc(C(=O)NCCN4CCOCC4)o3)cc2)CC1	674 s
CCCn1cc(C2=CCN(C(=O)NCC3CCCO3)CC2)c2cccnc21 (stereo not drawn)	719 s
Cc1ccc(-c2nnc(N3CCC(C(=O)NCCCN4CCOCC4)CC3)o2)cc1	608 s
O=C(c1cn(-c2ccc(-c3nc(C4CC4)no3)cn2)cn1)N1CCSCC1	819 s
O=C1[C@H]2CN(Cc3ccccc3)C[C@H]2C(=O)N1CCc1ccccc1	713 s
COCCN1C(=O)CCC2(C(=O)Nc3cc(OC)cc(OC)c3)CCCC=C12 (stereo not drawn)	763 s
COc1ccc(Cc2cnc(NC(=O)C3Cc4ccccc4C(=O)O3)s2)cc1 (stereo not drawn)	819 s
COc1ccc(Nc2c(-c3ccc(SC)cc3)nc3ncccn23)cc1OC	702 s
Cc1cc(-c2nn3c(-c4cccc(F)c4)nnc3s2)c2ccccc2n1	887 s
COc1ccc(-c2ccc(=O)n(Cc3nc(-c4ccccc4OC)no3)n2)cc1	891 s
Cc1cc(C)cc(NC(=O)C2CCN(Cc3cnn(-c4ccccc4)c3-n3cccc3)CC2)c1	794 s
O=C(NCCC1CCN(C(=O)Nc2ccc(F)cc2F)CC1)c1ccco1	700 s
O=S(=O)(Nc1ccc(Cl)cc1)c1c[nH]c2ncccc12	750 s
Cc1ccccc1Nc1nc(-c2ccccc2)cs1	1120 s
CS(=O)(=O)N1CCCC(C(=O)Nc2nc3cc4c(cc3s2)OCCO4)C1 (stereo not drawn)	707 s
